Results on 40 molecules are retold here after patent US8309739B2, “Chemical compounds” (Syngenta Limited, priority 2005, dated 2012).

For data set [1], the system named is Myzus persicae (Green Peach Aphid). In words: Myzus persicae test, roots of infested pea seedlings placed in test solution. The note with it: 144 h, read-out: control of Myzus persicae. It is filed as in vivo. The source says: Myzus persicae (Green Peach Aphid):
Roots of pea seedlings, infested with an aphid population of mixed ages, were placed directly in the test solutions of 24 ppm. 6 days after introduction, samples were checked for mortality.

For data set [2], the system named is Heliothis virescens (Tobacco Budworm). As to the kind of experiment: Heliothis virescens egg/larva test on artificial diet in 24-well microtiter plate. The data set is classed as in vivo. The following applies: 96 h, 200 ppm by pipetting on eggs (0-24 h old) on artificial diet, 4 days, egg mortality, larval mortality, growth regulation. The text has this:
Heliothis virescens (Tobacco Budworm):

[3] abbreviates: roots of infested pea seedlings in test solutions of 24 ppm, 6 days, mortality.

Molecules are shown by their SMILES. Like-named read-outs stand apart in the source and are kept apart here.

As for `Fc1cccc2c1CC(F)C2NC1=NCCS1` (stereo not shown) [Compound 2.067], in data set [1] (setting [3]), the pest or weed control at 24 ppm is at least 80%. Besides, the pest or weed control at 200 ppm in data set [2] is at least 80%. The molecule `Fc1cccc2c1C(NC1=NCCS1)CC2` (stereo not shown) [Compound 2.052] showed a pest or weed control at 200 ppm in data set [2] of at least 80%.

For orientation: melting point means the temperature of the solid-liquid transition. `CCc1cc(F)c2c(c1)C(NC1=NCCS1)CC2` (stereo not shown) had a melting point of 148 to 149 °C. `CC(=O)N1CCS/C1=N\C1CCc2ccccc21` (stereo not shown) [Compound 10.025]: in data set [2], the pest or weed control at 200 ppm was at least 80%. As for `COC(=O)N1CCS/C1=N\C1CCc2ccccc21` (stereo not shown) [Compound 10.015], in data set [1] (setting [3]), the pest or weed control at 24 ppm was at least 80%. The pest or weed control at 200 ppm in data set [2] was at least 80%. In turn, `COc1cc2c(cc1C)CCC2NC1=NCCS1` (stereo not shown) showed a melting point of 152 to 153 °C. With `CCC(=O)N1CCS/C1=N\C1CCc2ccccc21` (stereo not shown) [Compound 10.011], the pest or weed control at 24 ppm in data set [1] (setting [3]) is at least 80%. The same molecule gave a pest or weed control at 200 ppm in data set [2] of at least 80%. `O=[N+]([O-])c1cccc2c1CCC2NC1=NCCS1` (stereo not shown) [Compound 2.042] returned a melting point of 144 to 145 °C. The same measure, in the same setting: under `CC(=O)N(C(C)=O)N(C1=NCCS1)C1CCc2ccccc21` (stereo not shown) [Compound 7.004] stands 91 to 92 °C. In data set [2], `Fc1cc(Br)cc2c1CCC2NC1=NCCS1` (stereo not shown) [Compound 2.026] yielded a pest or weed control at 200 ppm of at least 80%.

In turn, `CC(C)(C)OC(=O)NN(C1=NCCS1)C1CCc2ccccc21` (stereo not shown) [Compound 7.002] gave a melting point of 63 to 64 °C. On the same count and under the same terms, under `CCCC1(CCC)Cc2ccccc2C1NC1=NCCS1` (stereo not shown) [Compound 2.034] stands 101 to 103 °C. For the molecule `Clc1cccc2c1CCC2NC1=NCCS1` (stereo not shown) [Compound 2.020], the pest or weed control at 200 ppm in data set [2] was at least 80%. With `Ic1cccc2c1CCC2NC1=NCCS1` (stereo not shown), the melting point lay in the range of 170 to 171 °C. Same read-out and setting: the result for `Cc1ccc2c(c1)C(NC1=NCCS1)CC2` (stereo not shown) reads 181 °C.

As for `CC(C)C(=O)N1CCS/C1=N\C1CCc2ccccc21` (stereo not shown) [Compound 10.006], in data set [1] (setting [3]), the pest or weed control at 24 ppm was at least 80%.

For `Fc1cc(F)c2c(c1F)C(NC1=NCCS1)CC2` (stereo not shown) [Compound 2.030], in data set [1] (setting [3]), the pest or weed control at 24 ppm was at least 80%. The pest or weed control at 200 ppm in data set [2] is at least 80%. In data set [2], `Fc1cc2c(c(F)c1F)CCC2NC1=NCCS1` (stereo not shown) [Compound 2.028] showed a pest or weed control at 200 ppm of at least 80%.

For `CCOC(=O)N1CCS/C1=N\C1CCc2ccccc21` (stereo not shown) [Compound 10.020], the pest or weed control at 200 ppm in data set [2] was at least 80%. The same measure, in the same setting: under `Cc1cccc2c1CCC2N(O)C1=NCCS1` (stereo not shown) [Compound 7.010] stands at least 80%; under `CC(=O)OC1Cc2ccccc2C1NC1=NCCS1` (stereo not shown) [Compound 12.008], at least 80%. `Oc1cccc2c1CCC2NC1=NCCS1` (stereo not shown) registered a melting point of 191 °C. As to `NN(C1=NCCS1)C1CCc2ccccc21` (stereo not shown) [Compound 7.013], the melting point fell in the range of 103 to 105 °C. On the same count and under the same terms, the result for `COC(=O)c1cccc2c1CCC2NC1=NCCS1` (stereo not shown) reads 131 °C. Consider `Cc1cccc2c1CCC2NC1=NCCS1` (stereo not shown) [Compound 2.006, (4,5-Dihydro-thiazol-2-yl)-(4-methyl-indan-1-yl)-amine], for which the pest or weed control at 24 ppm in data set [1] is at least 80%. Turning to `ON(C1=NCCS1)C1CCc2c(F)cccc21` (stereo not shown) [Compound 7.006], the pest or weed control at 24 ppm in data set [1] (setting [3]) was at least 80%. On to `Fc1cc(F)c2c(c1)C(NC1=NCCS1)CC2` (stereo not shown) [Compound 2.024], for which the pest or weed control at 24 ppm in data set [1] (setting [3]) is at least 80%. This molecule also gave a pest or weed control at 200 ppm in data set [2] of at least 80%. As for `Fc1ccc(F)c2c1CCC2NC1=NCCS1` (stereo not shown) [Compound 2.025], the pest or weed control at 24 ppm in data set [1] (setting [3]) is at least 80%. In addition, in data set [2], the pest or weed control at 200 ppm was at least 80%. With `Brc1ccc2c(c1)C(NC1=NCCS1)CC2` (stereo not shown) [Compound 2.049], the pest or weed control at 200 ppm in data set [2] was at least 80%. As for `Fc1c(F)c(F)c2c(c1F)CCC2NC1=NCCS1` (stereo not shown), the melting point was 165 °C. Still for that read-out and setting: under `CC1(C)CC(NC2=NCCS2)c2ccccc21` (stereo not shown) stands 60 to 66 °C. Same read-out and setting: the result for `ON(C1=NCCS1)C1CCc2c(Cl)cccc21` (stereo not shown) [Compound 7.001] reads 115 to 117 °C. Consider `FC(F)c1cccc2c1CCC2NC1=NCCS1` (stereo not shown) [Compound 2.058], for which the pest or weed control at 24 ppm in data set [1] (setting [3]) was at least 80%. This molecule yielded a pest or weed control at 200 ppm in data set [2] of at least 80%. As to `Fc1ccc2c(c1F)CCC2NC1=NCCS1` (stereo not shown), the melting point was determined as 161 °C. The same measure, in the same setting: the result for `Fc1ccc2c(c1)CCC2NC1=NCCS1` (stereo not shown) reads 136 °C.

Turning to `O=Cc1cccc2c1CCC2NC1=NCCS1` (stereo not shown), the melting point fell in the range of 142 to 143 °C. On the same count and under the same terms, under `c1ccc(Oc2cccc3c2CCC3NC2=NCCS2)cc1` (stereo not shown) [Compound 2.041] stands 143 to 146 °C. In data set [2], `N#CN1CCSC1=NC1CCc2ccccc21` (stereo not shown) [Compound 8.017, 2-(Indan-1-ylimino)-thiazolidine-3-carbonitrile] yielded a pest or weed control at 200 ppm of at least 80%. With `Cc1cc(F)c2c(c1)C(NC1=NCCS1)CC2` (stereo not shown) [Compound 2.031], the pest or weed control at 24 ppm in data set [1] (setting [3]) was at least 80%. In data set [2], this molecule yielded a pest or weed control at 200 ppm of at least 80%. For the molecule `Fc1cccc2c1CCC2NC1=NCCS1` (stereo not shown) [Compound 2.019], the pest or weed control at 24 ppm in data set [1] (setting [3]) is at least 80%. In addition, the pest or weed control at 200 ppm in data set [2] is at least 80%.
